Results: US4489089A, “Substituted N-[ω-(1H-imidazol-1-yl)alkyl]-amides” (American Cyanamid Company, priority 1984, dated 1984)

Legend:
thromboxane synthetase = target: T1, thromboxane synthetase (Rattus norvegicus, UniProt P49430); test: inhibition of thromboxane (TX) formation in rat platelets, TXB2 determined by radio-immunoassay (RIA); type: cell-based, Okamoto-Aoki spontaneously hypertensive rats (SHR); conditions: 10^-4 M; SHR washed platelets; 10 minutes at 37° C.
T1 construct: The platelets were isolated by centrifuging the PRP for 10 minutes at 1060×g; endogenous in cells; host or cells: washed platelets from arterial blood of Okamoto-Aoki spontaneously hypertensive rats (Taconic Farms)
T1 sequence (P49430 1-533): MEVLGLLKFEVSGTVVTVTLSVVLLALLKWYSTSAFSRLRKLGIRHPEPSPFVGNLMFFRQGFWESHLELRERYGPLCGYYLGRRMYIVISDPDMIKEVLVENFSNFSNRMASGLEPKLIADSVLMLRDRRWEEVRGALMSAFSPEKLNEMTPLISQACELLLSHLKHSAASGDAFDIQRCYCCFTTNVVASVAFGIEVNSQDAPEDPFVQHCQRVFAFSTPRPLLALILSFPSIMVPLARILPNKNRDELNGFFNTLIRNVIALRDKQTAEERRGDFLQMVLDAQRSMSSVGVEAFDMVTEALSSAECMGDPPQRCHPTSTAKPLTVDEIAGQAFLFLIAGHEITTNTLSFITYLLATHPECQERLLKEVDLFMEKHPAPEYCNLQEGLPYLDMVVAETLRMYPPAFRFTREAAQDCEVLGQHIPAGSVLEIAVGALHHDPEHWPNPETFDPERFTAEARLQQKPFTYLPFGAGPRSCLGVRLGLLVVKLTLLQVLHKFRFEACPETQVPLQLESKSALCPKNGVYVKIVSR
Description: Under urethan anesthesia, […]. of arterial blood was collected in one ml. of 3.2% sodium citrate in a polystyrene tube from Okamoto-Aoki spontaneously hypertensive rats (SHR) (Taconic Farms, Germantown, NY) between 19 and 24 weeks in age. The blood was diluted with 3 ml. cold saline and centrifuged at room temperature for 15 minutes at 460×g. The platelet rich plasma (PRP) was separated. The platelets were isolated by centrifuging the PRP for 10 minutes at 1060×g and were washed in 4 ml. cold oxygenated Krebs phosphate buffer, pH 7.4. The chilled platelets recovered from centrifuging at 800×g for 10 minutes were resuspended in oxygenated Krebs phosphate buffer and diluted to contain 4.5-6.0×10^4 platelts/μl.
The inhibition of thromboxane (TX) formation was studied by determing the concentration of thromboxane B2 (TXB2), the stable hydrolysis product of TXA2. Assay samples, prepared on ice, contained 200 μl. platelet suspension, 50 μl. saline, and 50 μl. vehicle or drug under study (OKY-1581, UK-37248-01, 1-benzylimidazole, or indomethacin). The samples were incubated for 10 minutes at 37° C. in a metabolic shaker. The reaction was terminated by immersing the tubes in an ice bath and adding 50 μl. of 0.5M citric acid. The samples were centrifuged for 10 minutes in a refrigerated centrifuge and the supernatants thus obtained were decanted and stored at -20° C. The TXB2 content for each sample was determined by a direct radio-immunoassay (RIA) utilizing a TXB2 specific RIA kit purchased from New England Nuclear, Boston, MA and expressed as pg TXB2 formed minute^-1 sample^-1, from which the percent inhibition of TXB2 formation was calculated. The results of this test on representative compounds of this invention appear in Table I

[1] = tested on: spontaneously hypertensive rats of the Okamoto strain; test: hypotensive activity (mean arterial blood pressure) in spontaneously hypertensive rats; type: in vivo; conditions: 100 mg/kg or less by gavage, two doses 24 h apart; measured 28 hours after initial dose; mean of 1-3 rats; starting MABP 160±1.5 mm
Description: The novel compounds of the present invention are also active hypotensive agents and were tested for hypotensive activity by the method of P. S. Chan and D. Poorvin, Clinical and Experimental Hypertension, 1 (6), 817-830 (1979). Male, 16 week old, spontaneously hypertensive rats of the Okamoto strain, from Taconic Farms, Germantown, N.Y. having an average mean arterial blood pressure of 160±1.5 mm of mercury are used in the test. One to 3 rats are used per test compound. A rat is dosed by gavage with a test compound, suspended in 2% pre-boiled starch at a concentration of 50 mg/ml, at a dose of 100 mg/kg of body weight or less, with 0.9% sodium chloride loading at a dose 25 ml/kg of body weight. A second identical dose of the test compound, without sodium chloride loading is given 24 hours later. At 28 hours after the initial dose, the mean arterial blood pressure (MABP) is measured by the method of Chan and Poorvin vide supra. The procedure is repeated in a second and third rat when necessary. Based on the data obtained and using the three-stage "sequential probability ratio test" statistical method, the critieria for activity or retest are as follows:
If the blood pressure in the first rat is ≤116 mm mercury the compound is considered active. If the blood pressure is between […], a second rat is used. If the average blood pressure of the first and second rats is ≤122 mm the compound is considered active. If the average blood pressure is between 123 and 137 mm, a third rat is used. If the average blood pressure of the three rats is ≤128 mm the compound is considered active. The results of this test on representative compounds of the present invention appear in Table II below.

Structure (SMILES) | inhibition at 100 µM (thromboxane synthetase) | MABP (mean arterial blood pressure) [1]
O=C(NCCCn1ccnc1)c1ccco1 [Example 1, N-[3-(1H-Imidazol-1-yl)propyl]-2-furanecarboxamide] | 97% | 
O=C(NCCCn1ccnc1)c1sc2ccccc2c1Cl [Example 2, 3-chloro-N--[3-(1H--imidazol-1-yl)propyl]benzo[b]thiophene-2-carboxamide] | 100% | 
O=C(NCCCn1ccnc1)c1sc2cc(F)ccc2c1Cl [Example 3, 3-chloro-6-fluoro-N--[3-(1H--imidazol-1-yl)propyl]benzo[b]thiophene-2-carboxamide] | 96% | 
Cc1ccc2c(Cl)c(C(=O)NCCCn3ccnc3)sc2c1 [Example 4, 3-chloro-N--[3-(1H--imidazol-1-yl)propyl]-6-methyl-benzo[b]thiophene-2-carboxamide] | 96% | 
O=C(NCCCn1ccnc1)c1ccoc1 [Example 5, N-[3-(1H-Imidazol-1-yl)propyl]-3-furanecarboxamide] | 78% | 128 mm Hg
O=C(NCCCn1ccnc1)c1ccc(Br)o1 [Example 6, 5-bromo-N--[3-(1H--imidazol-1-yl)propyl]-2-furanecarboxamide] | 82% | 
O=C(NCCCn1ccnc1)c1cccs1 [Example 7, N--[3-(1H--imidazol-1-yl)propyl]-2-thiophenecarboxamide] | 93% | 
Cc1ccc(C(=O)NCCCn2ccnc2)s1 [Example 8, N--[3-(1H--imidazol-1-yl)propyl]-5-methyl-2-thiophenecarboxamide] | 96% | 
O=C(NCCCn1ccnc1)c1cc(Br)c(Br)s1 [Example 9, 4,5-dibromo-N--[3-(1H--imidazol-1-yl)propyl]-2-thiophenecarboxamide] | 100% | 
O=C(NCCCn1ccnc1)c1cc2ccccc2o1 [Example 10, N--[3-(1H--imidazol-1-yl)propyl]-2-benzofuranecarboxamide] | 97% | 
O=C(NCCCn1ccnc1)c1cc2cc(Cl)ccc2s1 [Example 11, 5-chloro-N--[3-(1H--imidazol-1-yl)propyl]benzo[b]thiophene-2-carboxamide] | 100% | 
O=C(C=Cc1ccco1)NCCCn1ccnc1 [Example 14, N--[3-(1H--imidazol-1-yl)propyl]-3-(2-furanyl)-2-propenamide] | 78% | 
O=C(C=Cc1cccs1)NCCCn1ccnc1 [Example 15, N--[3-(1H--imidazol-1-yl)propyl]-3-(2-thienyl)-2-propenamide] | 100% | 
O=C(NCCCn1ccnc1)c1ccc([N+](=O)[O-])o1 [Example 16] | 64% | 114 mm Hg
O=C(CCCc1cccs1)NCCCn1ccnc1 [Example 17, N--[3-(1H--imidazol-1-yl)propyl]-2-thiophenebutyramide] |  | 121 mm Hg
O=C(NCCCn1ccnc1)C(=O)c1cccs1 [Example 18, N--[3-(1H--imidazol-1-yl)propyl]-α-oxo-thiophene acetamide] | 73% | 125 mm Hg
O=C(NCCCn1ccnc1)c1ccc(Cl)s1 [Example 19, 5-chloro-N--[3-(1H--imidazol-1-yl)propyl]thiophene-2-carboxamide] | 95% | 125 mm Hg
O=C(NCCn1ccnc1)c1sc2ccccc2c1Cl [Example 20, 3-Chloro-N-[2-(1H-imidazol-1-yl)ethyl]benzo[b]thiophene-2-carboxamide] | 70% | 117 mm Hg
CCc1nccn1CCCNC(=O)c1sc2ccccc2c1Cl [Example 22, 3-chloro-N--[3-(2-ethyl-1H--imidazol-1-yl)propyl]benzo[b]thiophene-2-carboxamide] | 55% | 
Cc1cn(CCCNC(=O)c2sc3ccccc3c2Cl)cn1 [Example 24, 3-chloro-N--[3-(4-methyl-1H--imidazol-1-yl)propyl]benzo[b]thiophene-2-carboxamide] | 98% | 
Cc1cn(CCCNC(=O)c2cccs2)cn1 [Example 25, N--[3-(4-methyl-1H--imidazol-1-yl)propyl]thiophene-2-carboxamide] | 51% | 
O=C(NCCCCn1ccnc1)c1ccco1 [Example 28, N-[4-(1H-Imidazol-1-yl)butyl]-2-furanecarboxamide] | 87% | 
O=C(NCCCCn1ccnc1)c1sc2ccccc2c1Cl [Example 29, 3-chloro-N--[4-(1H--imidazol-1-yl)butyl]benzo[b]thiophene-2-carboxamide] | 91% | 
O=C(NCCCCn1ccnc1)c1ccc(Cl)s1 [Example 30, 5-chloro-N--[4-(1H--imidazol-1-yl)butyl]thiophene-2-carboxamide] |  | 118 mm Hg
O=C(NCCCCn1ccnc1)c1cccs1 [Example 31, N--[4-(1H--imidazol-1-yl)butyl]thiophene-2-carboxamide] | 95% | 114 mm Hg
